This is an account of results in paper PMC9410882, “Identification of a novel deFADding activity in human, yeast and bacterial 5′ to 3′ exoribonucleases” (Nucleic Acids Research, 2022).

Data set [1] concerns the target T1, Xrn1 (Kl Xrn1) (Kluyveromyces lactis, UniProt Q6CJ09).
T1 construct: gene KLLA0_F22385g; recombinant, Ni-NTA purified
Briefly: inhibition of decay of […]-labelled capped RNA, gel. The format is biochemical. The settings on record: FAD-capped or NAD-capped RNA as substrate.

For data set [2], the target named is T2, RNase AM (yciV) (Escherichia coli, UniProt P77766).
T2 construct: gene rnm; full-length, His-tagged, expressed in E. coli BL21 (DE3) Rosetta with 2,2'-bipyridyl and MnSO4; Ni-NTA and gel filtration
T2 sequence (P77766 1-293): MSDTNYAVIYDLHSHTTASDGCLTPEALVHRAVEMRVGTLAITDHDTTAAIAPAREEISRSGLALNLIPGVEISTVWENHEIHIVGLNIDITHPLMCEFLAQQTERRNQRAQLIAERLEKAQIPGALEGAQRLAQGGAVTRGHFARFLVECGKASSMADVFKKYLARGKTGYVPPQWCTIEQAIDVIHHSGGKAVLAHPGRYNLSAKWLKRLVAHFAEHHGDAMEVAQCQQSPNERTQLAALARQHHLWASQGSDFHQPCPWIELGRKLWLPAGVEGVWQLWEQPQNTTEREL
Description: thermal shift assay. The settings on record: Mn2+-loaded enzyme; data not shown. The format is binding.

The target in data set [3] is T3, Kl Xrn1 (Kluyveromyces lactis, UniProt Q6CJ09 1-1245).
T3 sequence: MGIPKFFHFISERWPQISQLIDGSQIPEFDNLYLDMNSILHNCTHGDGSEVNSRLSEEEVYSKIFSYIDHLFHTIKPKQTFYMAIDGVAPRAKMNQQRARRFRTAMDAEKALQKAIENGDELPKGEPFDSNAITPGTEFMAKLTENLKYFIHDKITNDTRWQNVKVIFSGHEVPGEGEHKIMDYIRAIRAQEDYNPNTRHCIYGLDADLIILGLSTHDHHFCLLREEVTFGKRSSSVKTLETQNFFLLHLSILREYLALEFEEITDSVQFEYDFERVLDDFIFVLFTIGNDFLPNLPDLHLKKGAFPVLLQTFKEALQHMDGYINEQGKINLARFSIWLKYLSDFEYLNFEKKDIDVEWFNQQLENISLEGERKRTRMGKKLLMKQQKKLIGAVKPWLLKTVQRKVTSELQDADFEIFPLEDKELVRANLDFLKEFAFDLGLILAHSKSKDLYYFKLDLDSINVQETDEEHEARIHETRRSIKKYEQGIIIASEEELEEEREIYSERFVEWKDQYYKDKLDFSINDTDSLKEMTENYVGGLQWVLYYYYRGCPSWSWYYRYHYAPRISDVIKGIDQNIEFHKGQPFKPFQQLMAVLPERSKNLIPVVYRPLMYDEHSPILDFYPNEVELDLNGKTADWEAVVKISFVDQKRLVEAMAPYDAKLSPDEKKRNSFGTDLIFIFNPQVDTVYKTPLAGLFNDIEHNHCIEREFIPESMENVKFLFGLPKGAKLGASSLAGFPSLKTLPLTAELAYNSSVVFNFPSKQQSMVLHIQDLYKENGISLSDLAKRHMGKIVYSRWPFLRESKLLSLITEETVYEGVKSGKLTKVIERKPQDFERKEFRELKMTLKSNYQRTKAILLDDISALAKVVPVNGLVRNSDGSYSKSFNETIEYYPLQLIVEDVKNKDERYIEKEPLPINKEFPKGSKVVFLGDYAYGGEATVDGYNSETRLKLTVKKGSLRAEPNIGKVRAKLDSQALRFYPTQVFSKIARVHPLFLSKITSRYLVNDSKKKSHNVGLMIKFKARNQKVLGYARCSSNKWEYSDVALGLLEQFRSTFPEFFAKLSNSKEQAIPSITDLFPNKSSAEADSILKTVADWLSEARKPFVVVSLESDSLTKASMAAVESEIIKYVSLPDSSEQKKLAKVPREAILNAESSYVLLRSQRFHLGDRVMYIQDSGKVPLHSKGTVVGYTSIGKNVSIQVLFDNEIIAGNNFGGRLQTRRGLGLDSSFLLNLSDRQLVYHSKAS
Description: EMSA; stable complex, minimally competed by total yeast RNA; EMSA: 10 mM Tris-HCl pH 7.5, 150 mM KCl, 1.5 mM MgCl2, 0.5 mM DTT, on ice 30 min, 5 pmol RNA with 2.5-7.5 pmol Xrn1, 6% gel in 0.5x TBE; FcRAP: 1x lysis buffer, 4 C, 90 min. The settings on record: protein: recombinant; tags: C-terminal 6xHis; label: 32P uniform; single strand. A general note: A gel shift assay detects complexes by their altered migration in electrophoresis.

As for `Cc1cc2nc3c(=O)[nH]c(=O)nc-3n(C[C@H](O)[C@H](O)[C@H](O)COP(=O)(O)OP(=O)(O)OC[C@H]3O[C@@H](n4cnc5c(N)ncnc54)[C@H](O)[C@@H]3OP(=O)(O)O)c2cc1C` [FAD3′P], the inhibition result in data set [1] was “the effect was more pronounced with the FAD-capped RNA mimic, FAD3′P”.
For `Cc1cc2nc3c(=O)[nH]c(=O)nc-3n(C[C@H](O)[C@H](O)[C@H](O)COP(=O)(O)OP(=O)(O)OC[C@H]3O[C@@H](n4cnc5c(N)ncnc54)[C@H](O)[C@@H]3O)c2cc1C` [FAD], in data set [1] (free FAD), the inhibition result is recorded as “inhibition was nevertheless detected when using higher concentration of FAD”. Further, the thermal shift result in data set [2] was “competent for binding FAD (as determined by thermal shift assay; data not shown)”.
In the case of AGUUGGUGGUUGUUGUGUGUUUGUGGUUGGUUUGUUUGGC (ssRNA, 5' FAD cap) [FAD-capped RNA (FAD-40)], the binding result in data set [3] is listed as “binds”.
Take AGUUGGUGGUUGUUGUGUGUUUGUGGUUGGUUUGUUUGGC (ssRNA, 5' NAD cap) [NAD-capped RNA (NAD-40)]: the binding result in data set [3] is “binds”.
